Our source for the EC50 and IC50 values is patent US20250129070A1, “BIFUNCTIONAL ANDROGEN RECEPTOR COMPOUNDS” (priority 2023, published 2025).

One experiment concerns AR / CBP ternary complex. The experiment is described as follows: Ternary complex formation assay (sandwich ELISA, AR capture / CBP detection) in VCaP cell lysates. It is filed as cell-based. The conditions noted are these: 1.5 hours treatment, sandwich ELISA (AR capture, CBP or p300 detection). The method in brief:
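VCaP cells (50K/well, 5% charcoal-stripped FBS, ≥3 days) treated with bifunctional compound for 1.5 h, then lysed 30 min at 4 °C. AR captured on anti-AR (AR 441) plates; bound CBP or p300 detected by rabbit mAb plus HRP secondary. QuantaRed chemifluorescence read at ex 570/em 585, immediately and at 5 and 15 min.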
For orientation: ELISA stands for enzyme-linked immunosorbent assay.

For a further experiment, the system named is VCaP cells. Put plainly: VCaP growth inhibition assay. The class given is cell-based. The conditions noted are these: 30 pM R1881, 9 days, CTG. The method in brief: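 VCaP cells in phenol red-free DMEM/5% CSS, pre-incubated 72 h, then stimulated with R1881 (final 30 pM) and treated with 1:5 serial dilutions (final 100 nM to 10 fM) for 9 days at 37 °C. Viability by CellTiter-Glo luminescence; IC50 from 4-parameter logistic fit of RLU vs concentration.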

Some results are limits rather than exact numbers.

By EC50 is commonly meant the concentration at which the effect is half-maximal. A lower EC50 goes with greater potency. The IC50 is the concentration at which inhibition is half-maximal. In the experiment with AR / CBP ternary complex, `COc1cc(OC2C(C)(C)C(NC(=O)c3ccc(N4CCN(C5CN(c6ccc(-c7cc8c(cn7)N(c7nn(C9CCOCC9)c9c7CN(C(C)=O)CC9)CCC8)cn6)C5)CC4)cc3)C2(C)C)ccc1C#N` (stereo not shown) [Compound 324, 4-[4-[1-[5-[1-(5-acetyl-1-tetrahydropyran-4-yl-6,7-dihydro-4H-pyrazolo[4,3-c]pyridin-3-yl)-3,4-dihydro-2H-1,7-naphthyridin-6-yl]-2-pyridyl]azetidin-3-yl]piperazin-1-yl]-N-[3-(4-cyano-3-methoxy-phenoxy)-2,2,4,4-tetramethyl-cyclobutyl]benzamide] displayed a concentration for a half-maximal effect (EC50) of less than 1 nM. Further, in the experiment on VCaP cells, the concentration for half-maximal inhibition (IC50) was not above 0.1 nM.

Compound `CC(=O)N1CCc2c(c(N3CCCc4cc(-c5cnn(C)c5)c(C(F)F)cc43)nn2CCOC2CCN(c3ncc(C(=O)NC4C(C)(C)C(Oc5ccc(C#N)c(Cl)c5)C4(C)C)cn3)CC2)C1` (stereo not shown) [Compound 51, 2-[4-[2-[5-acetyl-3-[7-(difluoromethyl)-6-(1-methylpyrazol-4-yl)-3,4-dihydro-2H-quinolin-1-yl]-6,7-dihydro-4H-pyrazolo[4,3-c]pyridin-1-yl]ethoxy]-1-piperidyl]-N-[3-(3-chloro-4-cyano-phenoxy)-2,2,4,4-tetramethyl-cyclobutyl]pyrimidine-5-carboxamide] yielded an EC50 in the experiment on AR / CBP ternary complex of less than 1 nM. The compound also registered an IC50 with VCaP cells of 0.1 to 1 nM.

Compound `CC(=O)N1CCc2c(c(-c3cccc4cc(-c5ccc(CCC6CC7(C6)CN(c6ncc(C(=O)NC8C(C)(C)C(Oc9ccc(C#N)c(Cl)c9)C8(C)C)cn6)C7)nc5)ncc34)nn2C)C1` (stereo not shown) [Compound 229, 2-[6-[2-[5-[8-(5-acetyl-1-methyl-6,7-dihydro-4H-pyrazolo[4,3-c]pyridin-3-yl)-3-isoquinolyl]-2-pyridyl]ethyl]-2-azaspiro[3.3]heptan-2-yl]-N-[3-(3-chloro-4-cyano-phenoxy)-2,2,4,4-tetramethyl-cyclobutyl]pyrimidine-5-carboxamide] yielded an EC50 with AR / CBP ternary complex of 1 to 10 nM. In addition, the IC50 in the experiment on VCaP cells fell in the range of 0.1 to 1 nM.

The compound `CC(=O)N1CCc2c(c(N3CCCc4cc(-c5cnn(C)c5)c(C(F)F)cc43)nn2C2CCN([C@@H]3CCCN(c4ncc(C(=O)NC5C(C)(C)C(Oc6ccc(C#N)c(Cl)c6)C5(C)C)cn4)C3)CC2)C1` (stereo partly drawn) [Compound 398, 2-[(3R)-3-[4-[5-acetyl-3-[7-(difluoromethyl)-6-(1-methylpyrazol-4-yl)-3,4-dihydro-2H-quinolin-1-yl]-6,7-dihydro-4H-pyrazolo[4,3-c]pyridin-1-yl]-1-piperidyl]-1-piperidyl]-N-[3-(3-chloro-4-cyano-phenoxy)-2,2,4,4-tetramethyl-cyclobutyl]pyrimidine-5-carboxamide] displayed an EC50 with AR / CBP ternary complex of 1 to 10 nM. In the experiment on VCaP cells, this compound gave an IC50 of 1 to 100 nM.

Take `CC(=O)N1CCc2c(c(Nc3ccc(-c4cnn(C)c4)cc3F)nn2CCOCCN2CCN(c3ncc(C(=O)NC4C(C)(C)C(Oc5ccc(C#N)c(Cl)c5)C4(C)C)cn3)CC2)C1` (stereo not shown) [Compound 1, 2-[4-[2-[2-[5-acetyl-3-[2-fluoro-4-(1-methylpyrazol-4-yl)anilino]-6,7-dihydro-4H-pyrazolo[4,3-c]pyridin-1-yl]ethoxy]ethyl]piperazin-1-yl]-N-[3-(3-chloro-4-cyano-phenoxy)-2,2,4,4-tetramethyl-cyclobutyl]pyrimidine-5-carboxamide]: in the experiment with AR / CBP ternary complex, the EC50 is less than 1 nM. Also, the IC50 in the experiment on VCaP cells lay within 0.1 to 1 nM.

Regarding `CC(=O)N1CCc2c(c(N3CCCc4ccccc43)nn2C2CCN(CC3CCN(c4ncc(C(=O)NC5C(C)(C)C(Oc6ccc(C#N)c(Cl)c6)C5(C)C)cn4)CC3)CC2)C1` (stereo not shown) [Compound 158, 2-[4-[[4-[5-acetyl-3-(3,4-dihydro-2H-quinolin-1-yl)-6,7-dihydro-4H-pyrazolo[4,3-c]pyridin-1-yl]-1-piperidyl]methyl]-1-piperidyl]-N-[3-(3-chloro-4-cyano-phenoxy)-2,2,4,4-tetramethyl-cyclobutyl]pyrimidine-5-carboxamide], the EC50 in the experiment with AR / CBP ternary complex is 1 to 10 nM. The compound also had an IC50 in the experiment with VCaP cells not above 0.1 nM.

In the case of `C[C@@H]1CC(=O)Nc2cccc(-c3ccc4c(c3)c(-c3cnn(C)c3)nn4CCCOc3ncc(C(=O)NC4C(C)(C)C(Oc5ccc(C#N)c(Cl)c5)C4(C)C)cn3)c2N1` (stereo partly drawn) [Compound 49, N-[3-(3-chloro-4-cyano-phenoxy)-2,2,4,4-tetramethyl-cyclobutyl]-2-[3-[5-[(4R)-4-methyl-2-oxo-1,3,4,5-tetrahydro-1,5-benzodiazepin-6-yl]-3-(1-methylpyrazol-4-yl)indazol-1-yl]propoxy]pyrimidine-5-carboxamide], the EC50 in the experiment on AR / CBP ternary complex was more than 100 nM. Also, the IC50 in the experiment with VCaP cells is 1 to 100 nM.

`CC(=O)N1CCc2c(c(N3CCCc4cc(-c5cnn(C)c5)c(C(F)F)cc43)nn2C2CCN(c3ncc(C(=O)NC4C(C)(C)C(Oc5ccc(C#N)c(Cl)c5)C4(C)C)cn3)CC2)C1` (stereo not shown) [Compound 95, 2-[4-[5-acetyl-3-[7-(difluoromethyl)-6-(1-methylpyrazol-4-yl)-3,4-dihydro-2H-quinolin-1-yl]-6,7-dihydro-4H-pyrazolo[4,3-c]pyridin-1-yl]-1-piperidyl]-N-[3-(3-chloro-4-cyano-phenoxy)-2,2,4,4-tetramethyl-cyclobutyl]pyrimidine-5-carboxamide] gave an EC50 in the experiment on AR / CBP ternary complex of 1 to 10 nM. The same compound showed an IC50 in the experiment with VCaP cells of 0.1 to 1 nM.

`COc1cc(OC2C(C)(C)C(NC(=O)c3ccc(N4CC(N5CCC(n6nc(N7CCCc8cc(-c9cnn(C)c9)c(C(F)F)cc87)c7c6CCN(C(C)=O)C7)CC5)C4)cc3)C2(C)C)ccc1C#N` (stereo not shown) [Compound 310, 4-[3-[4-[5-acetyl-3-[7-(difluoromethyl)-6-(1-methylpyrazol-4-yl)-3,4-dihydro-2H-quinolin-1-yl]-6,7-dihydro-4H-pyrazolo[4,3-c]pyridin-1-yl]-1-piperidyl]azetidin-1-yl]-N-[3-(4-cyano-3-methoxy-phenoxy)-2,2,4,4-tetramethyl-cyclobutyl]benzamide] gave an EC50 in the experiment with AR / CBP ternary complex of less than 1 nM. The IC50 in the experiment on VCaP cells was not above 0.1 nM.

In the experiment on AR / CBP ternary complex, `CC(=O)N1CCc2c(c(N3CCCc4cc(-c5cnn(C)c5)c(C(F)F)cc43)nn2C2CCN(Cc3cn(CCc4ncc(C(=O)NC5C(C)(C)C(Oc6ccc(C#N)c(Cl)c6)C5(C)C)cn4)nn3)CC2)C1` (stereo not shown) [Compound 15, 2-[2-[4-[[4-[5-acetyl-3-[7-(difluoromethyl)-6-(1-methylpyrazol-4-yl)-3,4-dihydro-2H-quinolin-1-yl]-6,7-dihydro-4H-pyrazolo[4,3-c]pyridin-1-yl]-1-piperidyl]methyl]triazol-1-yl]ethyl]-N-[3-(3-chloro-4-cyano-phenoxy)-2,2,4,4-tetramethyl-cyclobutyl]pyrimidine-5-carboxamide] yielded an EC50 of 10 to 100 nM. Also, the IC50 with VCaP cells is more than 100 nM.

The compound `CC(=O)N1CCc2c(c(-c3cccc4cc(-c5ccc(CCC6CC7(C6)CN(c6ncc(C(=O)NC8C(C)(C)C(Oc9ccc(C#N)c(Cl)c9)C8(C)C)cn6)C7)nc5)ncc34)nn2C2CCOCC2)C1` (stereo not shown) [Compound 227, 2-[6-[2-[5-[8-(5-acetyl-1-tetrahydropyran-4-yl-6,7-dihydro-4H-pyrazolo[4,3-c]pyridin-3-yl)-3-isoquinolyl]-2-pyridyl]ethyl]-2-azaspiro[3.3]heptan-2-yl]-N-[3-(3-chloro-4-cyano-phenoxy)-2,2,4,4-tetramethyl-cyclobutyl]pyrimidine-5-carboxamide] returned a half-maximal effective concentration (EC50) with AR / CBP ternary complex of less than 1 nM. In addition, the half-maximal inhibitory concentration (IC50) in the experiment on VCaP cells is not above 0.1 nM.
